Reference: ChEMBL document CHEMBL3797052 (Eur J Med Chem, 2016)

system: not listed separately; experiment: Antiproliferative activity against human HL-60(TB) cells assessed as cell growth at 10^-5 M after 48 hrs by sulforhodamine B assay; assay type: functional; details: HL-60, 48 h, read-out: Activity

SMILES | growth at 10 µM [%]
CNC(=O)c1cc(Oc2ccc3nc(NC(=O)Nc4cc(C(F)(F)F)cc(C(F)(F)F)c4)sc3c2)ccn1 | -46

system: HT-29; experiment: Antiproliferative activity against human HT-29 cells assessed as cell growth at 10^-5 M after 48 hrs by sulforhodamine B assay; assay type: functional; details: HT-29, 48 h, read-out: Activity

SMILES | growth at 10 µM [%]
CNC(=O)c1cc(Oc2ccc3nc(NC(=O)Nc4cc(C(F)(F)F)cc(C(F)(F)F)c4)sc3c2)ccn1 | -80

system: not listed separately; experiment: Antiproliferative activity against human COLO205 cells assessed as cell growth at 10^-5 M after 48 hrs by sulforhodamine B assay; assay type: functional; details: COLO 205, 48 h, read-out: Activity

SMILES | growth at 10 µM [%]
CNC(=O)c1cc(Oc2ccc3nc(NC(=O)Nc4cc(C(F)(F)F)cc(C(F)(F)F)c4)sc3c2)ccn1 | -79

system: KM12; experiment: Antiproliferative activity against human KM12 cells assessed as cell growth at 10^-5 M after 48 hrs by sulforhodamine B assay; assay type: functional; details: KM12, 48 h, read-out: Activity

SMILES | growth at 10 µM [%]
CNC(=O)c1cc(Oc2ccc3nc(NC(=O)Nc4cc(C(F)(F)F)cc(C(F)(F)F)c4)sc3c2)ccn1 | -58

system: not listed separately; experiment: Antiproliferative activity against human HCT15 cells assessed as cell growth at 10^-5 M after 48 hrs by sulforhodamine B assay; assay type: functional; details: HCT-15, 48 h, read-out: Activity

SMILES | growth at 10 µM [%]
CNC(=O)c1cc(Oc2ccc3nc(NC(=O)Nc4cc(C(F)(F)F)cc(C(F)(F)F)c4)sc3c2)ccn1 | -70

system: not listed separately; experiment: Antiproliferative activity against human HCT116 cells assessed as cell growth at 10^-5 M after 48 hrs by sulforhodamine B assay; assay type: functional; details: HCT-116, 48 h, read-out: Activity

SMILES | growth at 10 µM [%]
CNC(=O)c1cc(Oc2ccc3nc(NC(=O)Nc4cc(C(F)(F)F)cc(C(F)(F)F)c4)sc3c2)ccn1 | -90

system: not listed separately; experiment: Cytotoxicity against human HCT116 cells assessed as growth inhibition at 10 uM after 2 days by MTT assay; assay type: functional; details: HCT-116, 48 h, read-out: GI

SMILES | inhibition of growth at 10 µM [%]
CNC(=O)c1cc(Oc2ccc3nc(NC(=O)Nc4cc(C(F)(F)F)cc(C(F)(F)F)c4)sc3c2)ccn1 | 87.5

system: not listed separately; experiment: Antiproliferative activity against human HOP92 cells assessed as cell growth at 10^-5 M after 48 hrs by sulforhodamine B assay; assay type: functional; details: HOP-92, 48 h, read-out: Activity

SMILES | growth at 10 µM [%]
CNC(=O)c1cc(Oc2ccc3nc(NC(=O)Nc4cc(C(F)(F)F)cc(C(F)(F)F)c4)sc3c2)ccn1 | -69

system: not listed separately; experiment: Antiproliferative activity against human OVCAR4 cells assessed as cell growth at 10^-5 M after 48 hrs by sulforhodamine B assay; assay type: functional; details: OVCAR-4, 48 h, read-out: Activity

SMILES | growth at 10 µM [%]
CNC(=O)c1cc(Oc2ccc3nc(NC(=O)Nc4cc(C(F)(F)F)cc(C(F)(F)F)c4)sc3c2)ccn1 | -64

system: not listed separately; experiment: Antiproliferative activity against human SNB19 cells assessed as cell growth at 10^-5 M after 48 hrs by sulforhodamine B assay; assay type: functional; details: SNB-19, 48 h, read-out: Activity

SMILES | growth at 10 µM [%]
CNC(=O)c1cc(Oc2ccc3nc(NC(=O)Nc4cc(C(F)(F)F)cc(C(F)(F)F)c4)sc3c2)ccn1 | -34

system: not listed separately; experiment: Cytotoxicity against human SKBR3 cells assessed as growth inhibition at 10 uM after 2 days by MTT assay; assay type: functional; details: SK-BR-3, 48 h, read-out: GI

SMILES | inhibition of growth at 10 µM [%]
CNC(=O)c1cc(Oc2ccc3nc(NC(=O)Nc4cc(C(F)(F)F)cc(C(F)(F)F)c4)sc3c2)ccn1 | 88.1

system: NCI-H322M; experiment: Antiproliferative activity against human NCI-H322M cells assessed as cell growth at 10^-5 M after 48 hrs by sulforhodamine B assay; assay type: functional; details: read-out: Activity

SMILES | growth at 10 µM [%]
CNC(=O)c1cc(Oc2ccc3nc(NC(=O)Nc4cc(C(F)(F)F)cc(C(F)(F)F)c4)sc3c2)ccn1 | -57

system: not listed separately; experiment: Antiproliferative activity against human Hs 578T cells assessed as cell growth at 10^-5 M after 48 hrs by sulforhodamine B assay; assay type: functional; details: read-out: Activity

SMILES | growth at 10 µM [%]
CNC(=O)c1cc(Oc2ccc3nc(NC(=O)Nc4cc(C(F)(F)F)cc(C(F)(F)F)c4)sc3c2)ccn1 | -34

system: MDA-MB-468; experiment: Antiproliferative activity against human MDA-MB-468 cells assessed as cell growth at 10^-5 M after 48 hrs by sulforhodamine B assay; assay type: functional; details: MDA-MB-468, 48 h, read-out: Activity

SMILES | growth at 10 µM [%]
CNC(=O)c1cc(Oc2ccc3nc(NC(=O)Nc4cc(C(F)(F)F)cc(C(F)(F)F)c4)sc3c2)ccn1 | -70

system: SK-MEL-2; experiment: Antiproliferative activity against human SK-MEL-2 cells assessed as cell growth at 10^-5 M after 48 hrs by sulforhodamine B assay; assay type: functional; details: SK-MEL-2, 48 h, read-out: Activity

SMILES | growth at 10 µM [%]
CNC(=O)c1cc(Oc2ccc3nc(NC(=O)Nc4cc(C(F)(F)F)cc(C(F)(F)F)c4)sc3c2)ccn1 | -53

system: not listed separately; experiment: Antiproliferative activity against human DU145 cells assessed as cell growth at 10^-5 M after 48 hrs by sulforhodamine B assay; assay type: functional; details: DU-145, 48 h, read-out: Activity

SMILES | growth at 10 µM [%]
CNC(=O)c1cc(Oc2ccc3nc(NC(=O)Nc4cc(C(F)(F)F)cc(C(F)(F)F)c4)sc3c2)ccn1 | -69

system: not listed separately; experiment: Antiproliferative activity against human RPMI8226 cells assessed as cell growth at 10^-5 M after 48 hrs by sulforhodamine B assay; assay type: functional; details: RPMI-8226, 48 h, read-out: Activity

SMILES | growth at 10 µM [%]
CNC(=O)c1cc(Oc2ccc3nc(NC(=O)Nc4cc(C(F)(F)F)cc(C(F)(F)F)c4)sc3c2)ccn1 | -37

system: not listed separately; experiment: Antiproliferative activity against human HCC2998 cells assessed as cell growth at 10^-5 M after 48 hrs by sulforhodamine B assay; assay type: functional; details: HCC 2998, 48 h, read-out: Activity

SMILES | growth at 10 µM [%]
CNC(=O)c1cc(Oc2ccc3nc(NC(=O)Nc4cc(C(F)(F)F)cc(C(F)(F)F)c4)sc3c2)ccn1 | -64

system: not listed separately; experiment: Cytotoxicity against human SKBR3 cells assessed as growth inhibition at 100 uM after 2 days by MTT assay; assay type: functional; details: SK-BR-3, 48 h, read-out: GI

SMILES | inhibition of growth at 100 µM [%]
CNC(=O)c1cc(Oc2ccc3nc(NC(=O)Nc4cc(C(F)(F)F)cc(C(F)(F)F)c4)sc3c2)ccn1 | 96.3

system: not listed separately; experiment: Antiproliferative activity against human HOP62 cells assessed as cell growth at 10^-5 M after 48 hrs by sulforhodamine B assay; assay type: functional; details: HOP-62, 48 h, read-out: Activity

SMILES | growth at 10 µM [%]
CNC(=O)c1cc(Oc2ccc3nc(NC(=O)Nc4cc(C(F)(F)F)cc(C(F)(F)F)c4)sc3c2)ccn1 | -72

system: not listed separately; experiment: Cytotoxicity against human HCT116 cells assessed as growth inhibition at 100 uM after 2 days by MTT assay; assay type: functional; details: HCT-116, 48 h, read-out: GI

SMILES | inhibition of growth at 100 µM [%]
CNC(=O)c1cc(Oc2ccc3nc(NC(=O)Nc4cc(C(F)(F)F)cc(C(F)(F)F)c4)sc3c2)ccn1 | 98.4

system: not listed separately; experiment: Antiproliferative activity against human UACC62 cells assessed as cell growth at 10^-5 M after 48 hrs by sulforhodamine B assay; assay type: functional; details: UACC-62, 48 h, read-out: Activity

SMILES | growth at 10 µM [%]
CNC(=O)c1cc(Oc2ccc3nc(NC(=O)Nc4cc(C(F)(F)F)cc(C(F)(F)F)c4)sc3c2)ccn1 | -77

system: not listed separately; experiment: Antiproliferative activity against human UO31 cells assessed as cell growth at 10^-5 M after 48 hrs by sulforhodamine B assay; assay type: functional; details: UO-31, 48 h, read-out: Activity

SMILES | growth at 10 µM [%]
CNC(=O)c1cc(Oc2ccc3nc(NC(=O)Nc4cc(C(F)(F)F)cc(C(F)(F)F)c4)sc3c2)ccn1 | -87

system: not listed separately; experiment: Antiproliferative activity against human OVCAR8 cells assessed as cell growth at 10^-5 M after 48 hrs by sulforhodamine B assay; assay type: functional; details: OVCAR-8, 48 h, read-out: Activity

SMILES | growth at 10 µM [%]
CNC(=O)c1cc(Oc2ccc3nc(NC(=O)Nc4cc(C(F)(F)F)cc(C(F)(F)F)c4)sc3c2)ccn1 | -93

system: MDA-MB-435; experiment: Antiproliferative activity against human MDA-MB-435 cells assessed as cell growth at 10^-5 M after 48 hrs by sulforhodamine B assay; assay type: functional; details: MDA-MB-435, 48 h, read-out: Activity

SMILES | growth at 10 µM [%]
CNC(=O)c1cc(Oc2ccc3nc(NC(=O)Nc4cc(C(F)(F)F)cc(C(F)(F)F)c4)sc3c2)ccn1 | -69

system: SK-MEL-28; experiment: Antiproliferative activity against human SK-MEL-28 cells assessed as cell growth at 10^-5 M after 48 hrs by sulforhodamine B assay; assay type: functional; details: SK-MEL-28, 48 h, read-out: Activity

SMILES | growth at 10 µM [%]
CNC(=O)c1cc(Oc2ccc3nc(NC(=O)Nc4cc(C(F)(F)F)cc(C(F)(F)F)c4)sc3c2)ccn1 | -75

system: not listed separately; experiment: Antiproliferative activity against human BT549 cells assessed as cell growth at 10^-5 M after 48 hrs by sulforhodamine B assay; assay type: functional; details: BT-549, 48 h, read-out: Activity

SMILES | growth at 10 µM [%]
CNC(=O)c1cc(Oc2ccc3nc(NC(=O)Nc4cc(C(F)(F)F)cc(C(F)(F)F)c4)sc3c2)ccn1 | -71

system: T47D; experiment: Antiproliferative activity against human T47D cells assessed as cell growth at 10^-5 M after 48 hrs by sulforhodamine B assay; assay type: functional; details: read-out: Activity

SMILES | growth at 10 µM [%]
CNC(=O)c1cc(Oc2ccc3nc(NC(=O)Nc4cc(C(F)(F)F)cc(C(F)(F)F)c4)sc3c2)ccn1 | -56

system: not listed separately; experiment: Antiproliferative activity against human Caki1 cells assessed as cell growth at 10^-5 M after 48 hrs by sulforhodamine B assay; assay type: functional; details: CAKI-1, 48 h, read-out: Activity

SMILES | growth at 10 µM [%]
CNC(=O)c1cc(Oc2ccc3nc(NC(=O)Nc4cc(C(F)(F)F)cc(C(F)(F)F)c4)sc3c2)ccn1 | -77

system: NCI-H522; experiment: Antiproliferative activity against human NCI-H522 cells assessed as cell growth at 10^-5 M after 48 hrs by sulforhodamine B assay; assay type: functional; details: NCI-H522, 48 h, read-out: Activity

SMILES | growth at 10 µM [%]
CNC(=O)c1cc(Oc2ccc3nc(NC(=O)Nc4cc(C(F)(F)F)cc(C(F)(F)F)c4)sc3c2)ccn1 | -58

system: not listed separately; experiment: Antiproliferative activity against human SF539 cells assessed as cell growth at 10^-5 M after 48 hrs by sulforhodamine B assay; assay type: functional; details: SF-539, 48 h, read-out: Activity

SMILES | growth at 10 µM [%]
CNC(=O)c1cc(Oc2ccc3nc(NC(=O)Nc4cc(C(F)(F)F)cc(C(F)(F)F)c4)sc3c2)ccn1 | -78

system: not listed separately; experiment: Antiproliferative activity against human LOXIMVI cells assessed as cell growth at 10^-5 M after 48 hrs by sulforhodamine B assay; assay type: functional; details: LOX IMVI, read-out: Activity

SMILES | growth at 10 µM [%]
CNC(=O)c1cc(Oc2ccc3nc(NC(=O)Nc4cc(C(F)(F)F)cc(C(F)(F)F)c4)sc3c2)ccn1 | -93

system: not listed separately; experiment: Antiproliferative activity against human SF268 cells assessed as cell growth at 10^-5 M after 48 hrs by sulforhodamine B assay; assay type: functional; details: SF-268, 48 h, read-out: Activity

SMILES | growth at 10 µM [%]
CNC(=O)c1cc(Oc2ccc3nc(NC(=O)Nc4cc(C(F)(F)F)cc(C(F)(F)F)c4)sc3c2)ccn1 | -77

system: K562; experiment: Antiproliferative activity against human K562 cells assessed as cell growth at 10^-5 M after 48 hrs by sulforhodamine B assay; assay type: functional; details: K562, 48 h, read-out: Activity

SMILES | growth at 10 µM [%]
CNC(=O)c1cc(Oc2ccc3nc(NC(=O)Nc4cc(C(F)(F)F)cc(C(F)(F)F)c4)sc3c2)ccn1 | -20

system: not listed separately; experiment: Antiproliferative activity against human SW620 cells assessed as cell growth at 10^-5 M after 48 hrs by sulforhodamine B assay; assay type: functional; details: SW-620, 48 h, read-out: Activity

SMILES | growth at 10 µM [%]
CNC(=O)c1cc(Oc2ccc3nc(NC(=O)Nc4cc(C(F)(F)F)cc(C(F)(F)F)c4)sc3c2)ccn1 | -74

system: A498; experiment: Antiproliferative activity against human A498 cells assessed as cell growth at 10^-5 M after 48 hrs by sulforhodamine B assay; assay type: functional; details: A498, 48 h, read-out: Activity

SMILES | growth at 10 µM [%]
CNC(=O)c1cc(Oc2ccc3nc(NC(=O)Nc4cc(C(F)(F)F)cc(C(F)(F)F)c4)sc3c2)ccn1 | -79

system: Malme-3M; experiment: Antiproliferative activity against human MALME-3M cells assessed as cell growth at 10^-5 M after 48 hrs by sulforhodamine B assay; assay type: functional; details: read-out: Activity

SMILES | growth at 10 µM [%]
CNC(=O)c1cc(Oc2ccc3nc(NC(=O)Nc4cc(C(F)(F)F)cc(C(F)(F)F)c4)sc3c2)ccn1 | -74
